Laboratory results reported in publication PMC10611828 (European Journal of Nuclear Medicine and Molecular Imaging, 2023).
Like-named read-outs stand apart in the source and are kept apart here.

Columns and labels:
[1] = Stability in mouse serum at 37 °C (radio-HPLC); assay type: in vitro ADME; conditions: read-out: intact radiolabeled ligand (RCP)
Experimental: (§1) The ^177Lu-labeled peptides were incubated in 300-μL phosphate buffered saline (PBS; Gibco, ThermoFisher, The Netherlands) at 37 °C, and their stability was verified after 1, 4, 24, 48, and 72 h by radio-HPLC (Supplementary Fig. 2). The stability in serum was determined by incubating the radiolabeled compounds into 300 μL of mouse serum (Invitrogen, USA) or human serum (Sigma Aldrich, USA) at 37 °C (Supplementary Fig. 3, 4). At each time point post-incubation, 35 μL of the mixture was added to an Eppendorf tube, and the proteins were precipitated by adding an equal volume of acetonitrile. The tubes were centrifuged at 16,000 rpm, 4 °C for 20 min, and the stability was monitored by radio-HPLC, expressed as the RCP at the different time points.

[2] = In vivo biodistribution and clearance in PC-3 tumor-bearing mice; conditions: male, NMRI-Foxn1 nu/nu, mouse, iv, total radioactivity, i.v.; for tissue uptake at 1 h: 1 h p.i.; for tissue uptake at 4 h: 4 h p.i.; for tissue uptake at 24 h: 24 h p.i.; for tissue uptake at 48 h: 48 h p.i.; for tissue uptake at 72 h: 72 h p.i.
Experimental: All animal experiments were approved by the Animal Welfare Committee of the Erasmus MC, and all experiments were conducted in accordance to institutional guidelines.
At 1, 4, 24, 48, and 72 h post-injection (p.i.), animals were sedated using 2.5% isoflurane in oxygen, and blood was collected via the orbital vein, after which the animals were euthanized using cervical dislocation. Subsequently, the following organs were collected; the tail, tumor, spleen, liver, pancreas, small intestine, colon, coecum, kidneys, lung, and muscle. […] The collected tumor and organs were weighed, and the radioactivity was measured in the gamma counter. The biodistribution data are expressed as percentage injected dose per gram of tissue (% ID/g). Animal numbers per group are indicated in Supplementary Table 1 and 2.
Statistical analysis was performed using Graphpad Prism version 9.0.0. Outliers were identified using the ROUT method with a Q value of 1%. IC50 curves were determined using non-linear regression.

[3] = Stability in human serum at 37 °C (radio-HPLC); assay type: in vitro ADME; conditions: read-out: intact radiolabeled ligand (RCP)
Experimental: as §1

[4] = PC-3 tumor, read-out: % uptake PC-3 tumor
[5] = gastrointestinal tract, read-out: % uptake gastrointestinal tract
[6] = kidney, read-out: % uptake kidney
[7] = liver, read-out: % uptake liver
[8] = muscle, read-out: % uptake muscle
[9] = pancreas, read-out: % uptake pancreas
[10] = prostate, read-out: % uptake prostate
[11] = spleen, read-out: % uptake spleen

- remaining at 1 h ([1]; 1 h): 90.9 ± 0.5%
- remaining at 24 h ([1]; 24 h): 29.6 ± 1.2%
- remaining at 48 h ([1]; 48 h): 17.1 ± 3.5%
- remaining at 72 h ([1]; 72 h): 5.3 ± 0.9%
- tissue uptake at 1 h [2, 4]: 9.27 ± 1.81 %ID/g
- tissue uptake at 4 h [2, 4]: 9.14 ± 0.94 %ID/g
- tissue uptake at 24 h [2, 4]: 7.32 %ID/g
- tissue uptake at 48 h [2, 4]: 5.47 %ID/g
- tissue uptake at 72 h [2, 4]: 2.97 %ID/g
- tissue uptake at 1 h ([2]; blood, read-out: % uptake blood): 0.3 %ID/g
- tissue uptake at 1 h [2, 5]: 1.75 %ID/g
- tissue uptake at 4 h [2, 5]: 0.56 %ID/g
- tissue uptake at 24 h [2, 5]: 0.05 %ID/g
- tissue uptake at 48 h [2, 5]: 0.03 %ID/g
- tissue uptake at 72 h [2, 5]: 0.01 %ID/g
- tissue uptake at 1 h [2, 6]: 3 %ID/g
- tissue uptake at 4 h [2, 6]: 1.69 %ID/g
- tissue uptake at 24 h [2, 6]: 0.63 %ID/g
- tissue uptake at 48 h [2, 6]: 0.26 %ID/g
- tissue uptake at 72 h [2, 6]: 0.12 %ID/g
- tissue uptake at 1 h [2, 7]: 0.2 %ID/g
- tissue uptake at 4 h [2, 7]: 0.09 %ID/g
- tissue uptake at 24 h [2, 7]: 0.04 %ID/g
- tissue uptake at 48 h [2, 7]: 0.03 %ID/g
- tissue uptake at 72 h [2, 7]: 0.02 %ID/g
- tissue uptake at 1 h ([2]; lung, read-out: % uptake lungs): 0.3 %ID/g
- tissue uptake at 4 h ([2]; lung, read-out: % uptake lungs): 0.04 %ID/g
- tissue uptake at 24 h ([2]; lung, read-out: % uptake lungs): 0.02 %ID/g
- tissue uptake at 48 h ([2]; lung, read-out: % uptake lungs): 0.01 %ID/g
- tissue uptake at 72 h ([2]; lung, read-out: % uptake lungs): 0.01 %ID/g
- tissue uptake at 1 h [2, 8]: 0.06 %ID/g
- tissue uptake at 4 h [2, 8]: 0.01 %ID/g
- tissue uptake at 24 h [2, 8]: 0.01 %ID/g
- tissue uptake at 1 h [2, 9]: 14.4 ± 2.56 %ID/g
- tissue uptake at 4 h [2, 9]: 2.07 ± 0.3 %ID/g
- tissue uptake at 24 h [2, 9]: 0.25 %ID/g
- tissue uptake at 48 h [2, 9]: 0.14 %ID/g
- tissue uptake at 72 h [2, 9]: 0.05 %ID/g
- tissue uptake at 1 h [2, 10]: 1.08 %ID/g
- tissue uptake at 4 h [2, 10]: 0.03 %ID/g
- tissue uptake at 24 h [2, 10]: 0.03 %ID/g
- tissue uptake at 48 h [2, 10]: 0.02 %ID/g
- tissue uptake at 72 h [2, 10]: 0.01 %ID/g
- tissue uptake at 1 h [2, 11]: 0.19 %ID/g
- tissue uptake at 4 h [2, 11]: 0.06 %ID/g
- tissue uptake at 24 h [2, 11]: 0.04 %ID/g
- tissue uptake at 48 h [2, 11]: 0.03 %ID/g
- tissue uptake at 72 h [2, 11]: 0.02 %ID/g
- remaining at 1 h ([3]; 1 h): 96.7 ± 0.7%
- remaining at 4 h ([3]; 4 h): 95.5 ± 1.1%
- remaining at 24 h ([3]; 24 h): 94.9 ± 1.5%
- remaining at 48 h ([3]; 48 h): 92.3 ± 1.9%
- remaining at 72 h ([3]; 72 h): 88.4 ± 0.6%
Structure (SMILES): CC(C)C[C@H](NC(=O)C[C@H](O)[C@H](CC(C)C)NC(=O)[C@H](Cc1c[nH]cn1)NC(=O)CNC(=O)[C@@H](NC(=O)[C@H](C)NC(=O)[C@H](Cc1c[nH]c2ccccc12)NC(=O)[C@H](CCC(N)=O)NC(=O)[C@@H](Cc1ccccc1)NC(=O)CN1CCC(NC(=O)CN2CCN(CC(=O)O)CCN(CC(=O)O)CCN(CC(=O)O)CC2)CC1)C(C)C)C(N)=O [[^177Lu]Lu-RM2, metal not drawn]
